Assay results: ChEMBL document CHEMBL3826975, “New indolizine-chalcones as potent inhibitors of human farnesyltransferase: Design, synthesis and biological evaluation” (Bioorg Med Chem Lett, 2016)
pIC50: −log10 of the molar value.

What was measured:
[1] = target: T1, Protein farnesyltransferase (Homo sapiens, UniProt P49354+P49356); test: Inhibition of human recombinant farnesyltransferase using farnesylpyrophosphate and dansyl-GCVLS as substrate at 100 uM measured for 15 mins by fluorescence assay; format: protein-complex assay
[2] = target: T1, Protein farnesyltransferase; test: Inhibition of human recombinant farnesyltransferase using farnesylpyrophosphate and dansyl-GCVLS as substrate measured for 15 mins by fluorescence assay; format: protein-complex assay

| Compound | inhibition [1] [%] | pIC50 [2] |
| --- | --- | --- |
| CCOC(=O)c1cc(C(=O)/C=C/c2cc(OC)c(OC)c(OC)c2)n2ccc(OC)cc12 | 76 | 4.93 |
| CCOC(=O)c1cc(C(=O)/C=C/c2ccc(Br)cc2)n2ccc(OC)cc12 | 100 | 6.22 |
| CCOC(=O)c1cc(C(=O)/C=C/c2ccc(OC)cc2)n2ccc(OC)cc12 | 68 | – |
| COc1ccn2c(C(=O)/C=C/c3ccc(Cl)cc3)cc(C(=O)O)c2c1 | 88 | 5.63 |
| CCOC(=O)c1cc(C(=O)/C=C/c2cc(OC)c(OC)c(OC)c2)n2c(C)cccc12 | 7 | – |
| COc1cc(/C=C/C(=O)c2cc(C(=O)O)c3c(C)cc(C)cn23)cc(OC)c1OC | 88 | 4.80 |
| CCOC(=O)c1cc(C(=O)/C=C/c2ccc3c(c2)Sc2ccccc2N3C)n2c(C)cccc12 | 91 | 7.64 |
| COc1cc(/C=C/C(=O)c2ccc3c(C)cc(C)cn23)cc(OC)c1OC | 88 | 6.14 |

Continued, values first:

| inhibition [1] [%] | pIC50 [2] | Compound |
| --- | --- | --- |
| 85 | 8.05 | CCOC(=O)c1cc(C(=O)/C=C/c2ccc3c(c2)Sc2ccccc2N3C)n2ccccc12 |
| 95 | 5.06 | CCOC(=O)c1cc(C(=O)/C=C/c2ccc(C#N)cc2)n2ccc(OC)cc12 |
| 98 | 6.81 | CCOC(=O)c1cc(C(=O)/C=C/c2ccc3c(c2)Sc2ccccc2N3C)n2ccc(C)cc12 |
| 95 | 5.88 | CCOC(=O)c1cc(C(=O)/C=C/c2ccc(-c3ccccc3)cc2)n2ccc(OC)cc12 |
| 84 | 6.15 | CCOC(=O)c1cc(C(=O)/C=C/c2ccc3c(c2)Sc2ccccc2N3C)n2ccc(OC)cc12 |
| 94 | 4.71 | CCOC(=O)c1cc(C(=O)/C=C/c2cc(OC)c(OC)c(OC)c2)n2ccccc12 |
| 85 | 6.03 | CCOC(=O)c1cc(C(=O)/C=C/c2ccc(Cl)cc2)n2ccc(OC)cc12 |
| 100 | – | CSCC[C@H](NC(=O)c1ccc(NC[C@@H](N)CS)cc1-c1ccccc1)C(=O)O |
